pIC50: −log10 of the molar value. Read-outs that look alike come from different tables or passages of the source.
Experiments:
[1] = tested on: SKBR3 (PI3Kα wild type) cells; experiment: CellTiter-Glo 2.0 luminescent cell viability assay, 72 hours, SKBR3 cells; format: cell-based; details: SKBR3 (PI3Kα wild type) cells, CellTiter-Glo, approximately 72 hours, read-out: SKBR3 (WT) Viability IC50
Summary of the method: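 Viability measured via CTG luminescence following roughly 72 hours of compound exposure at 37° C. Dosing used a 10 um starting concentration diluted 1:4 over 10 points; percent-of-vehicle data fitted with a variable-slope four-parameter model for IC50.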

[2] = tested on: T47D (PI3Kα H1047R mutant) cells; experiment: CellTiter-Glo 2.0 luminescent cell viability assay, 72 hours, T47D cells; format: cell-based; details: T47D (PI3Kα H1047R mutant) cells, CellTiter-Glo, approximately 72 hours, read-out: T47D (H1047R mutant) Viability IC50
Summary of the method: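 Viability was measured by CellTiter-Glo 2.0 luminescence after approximately 72 h of compound exposure at 37° C. Plating was 1000 cells per well the day before dosing, with ten 1:4 dilutions from a 10 µM top concentration. Values as percent of vehicle were fitted by variable-slope log(inhibitor) regression to give IC50.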

| Structure (SMILES) | pIC50 ([1]; Homo sapiens, SK-BR-3, 72 h) | pIC50 ([2]; Homo sapiens, T47D, 72 h) | pIC50 [1] | pIC50 [2] |
| --- | --- | --- | --- | --- |
| Cc1cc([C@H](C)Nc2ccc(F)nc2C(=O)O)c2nc(N3CCC(F)(F)CC3)c(C#N)c(=O)n2c1 [Example 11-43, (S)-3-((1-(3-cyano-2-(4,4-difluoropiperidin-1-yl)-7-methyl-4-oxo-4H-pyrido[1,2-a]pyrimidin-9-yl)ethyl)amino)-6-fluoropicolinic acid] | < 5.00 | 6.43 | – | – |
| Cc1cc([C@@H](C)Nc2ccc(F)nc2C(=O)O)c2nc(N3CCC(F)(F)CC3)c(C#N)c(=O)n2c1 [Example 11-44, (R)-3-((1-(3-cyano-2-(4,4-difluoropiperidin-1-yl)-7-methyl-4-oxo-4H-pyrido[1,2-a]pyrimidin-9-yl)ethyl)amino)-6-fluoropicolinic acid] | < 5.00 | 5.02 | – | – |
| Cc1cc([C@@H](C)Nc2ccc(F)nc2C(=O)O)c2nc(N3CCC(F)(F)CC3)c(C)c(=O)n2c1 [Example 11-45, (R)-3-((1-(2-(4,4-difluoropiperidin-1-yl)-3,7-dimethyl-4-oxo-4H-pyrido[1,2-a]pyrimidin-9-yl)ethyl)amino)-6-fluoropicolinic acid] | – | – | < 5.00 | 5.53 |
| Cc1cc([C@@H](C)Nc2ccc(C)nc2C(=O)O)c2nc(N3CCC(F)(F)CC3)c(C)c(=O)n2c1 [Example 11-46, (R)-3-((1-(2-(4,4-difluoropiperidin-1-yl)-3,7-dimethyl-4-oxo-4H-pyrido[1,2-a]pyrimidin-9-yl)ethyl)amino)-6-methylpicolinic acid] | < 5.00 | 6.82 | – | – |
| Cc1cc([C@@H](C)Nc2ccccc2C(=O)O)c2nc(N3C[C@H](F)C[C@@H](F)C3)c(C#N)c(=O)n2c1 [Example 11-47, 2-(((R)-1-(3-cyano-2-((3R,5R)-3,5-difluoropiperidin-1-yl)-7-methyl-4-oxo-4H-pyrido[1,2-a]pyrimidin-9-yl)ethyl)amino)benzoic acid] | < 5.00 | 6.62 | – | – |
| Cc1cc([C@@H](C)Nc2ccccc2C(=O)O)c2nc(N3C[C@H](F)C[C@H](F)C3)c(C#N)c(=O)n2c1 [Example 11-48, 2-(((R)-1-(3-cyano-2-((3R,5S)-3,5-difluoropiperidin-1-yl)-7-methyl-4-oxo-4H-pyrido[1,2-a]pyrimidin-9-yl)ethyl)amino)benzoic acid] | < 5.00 | 6.07 | – | – |
| Cc1cc([C@@H](C)Nc2ccccc2C(=O)O)c2nc(NCC(C)C(F)(F)F)c(C#N)c(=O)n2c1 (stereo partly drawn) [Example 11-49, 2-(((1R)-1-(3-cyano-7-methyl-4-oxo-2-((3,3,3-trifluoro-2-methylpropyl)amino)-4H-pyrido[1,2-a]pyrimidin-9-yl)ethyl)amino)benzoic acid] | < 5.00 | 6.69 | – | – |
| C[C@@H](Nc1ccc(Cl)nc1C(=O)O)c1cc(Cl)cn2c(=O)c(C#N)c(N3CCC(F)(F)CC3)nc12 [Example 11-50, (R)-6-chloro-3-((1-(7-chloro-3-cyano-2-(4,4-difluoropiperidin-1-yl)-4-oxo-4H-pyrido[1,2-a]pyrimidin-9-yl)ethyl)amino)picolinic acid] | < 5.00 | 6.66 | – | – |
| Cc1cc([C@@H](C)Nc2ccccc2C(=O)O)c2nc(N[C@H](C)c3cccnc3)c(C#N)c(=O)n2c1 [Example 11-51, 2-(((R)-1-(3-cyano-7-methyl-4-oxo-2-(((R)-1-(pyridin-3-yl)ethyl)amino)-4H-pyrido[1,2-a]pyrimidin-9-yl)ethyl)amino)benzoic acid] | < 5.00 | < 5.00 | – | – |
| Cc1cc([C@@H](C)Nc2ccccc2C(=O)O)c2nc(N[C@@H](C)c3cccnc3)c(C#N)c(=O)n2c1 [Example 11-52, 2-(((R)-1-(3-cyano-7-methyl-4-oxo-2-(((S)-1-(pyridin-3-yl)ethyl)amino)-4H-pyrido[1,2-a]pyrimidin-9-yl)ethyl)amino)benzoic acid] | < 5.00 | 5.18 | – | – |
| Cc1cc([C@@H](C)Nc2ccccc2C(=O)O)c2nc(N3CCC(c4cc[nH]n4)CC3)c(C#N)c(=O)n2c1 [Example 11-53, (R)-2-((1-(2-(4-(1H-pyrazol-3-yl)piperidin-1-yl)-3-cyano-7-methyl-4-oxo-4H-pyrido[1,2-a]pyrimidin-9-yl)ethyl)amino)benzoic acid] | < 5.00 | 5.60 | – | – |
| Cc1cc([C@@H](C)Nc2ccccc2C(=O)O)c2nc(N3CCC4(CC3)CC(F)(F)C4)c(C)c(=O)n2c1 [Example 11-54, (R)-2-((1-(2-(2,2-difluoro-7-azaspiro[3.5]nonan-7-yl)-3,7-dimethyl-4-oxo-4H-pyrido[1,2-a]pyrimidin-9-yl)ethyl)amino)benzoic acid] | < 5.00 | 6.49 | – | – |
| Cc1cc([C@@H](C)Nc2ccccc2C(=O)O)c2nc(N3CCC4(CCO4)CC3)c(C#N)c(=O)n2c1 [Example 11-55, (R)-2-((1-(3-cyano-7-methyl-4-oxo-2-(1-oxa-7-azaspiro[3.5]nonan-7-yl)-4H-pyrido[1,2-a]pyrimidin-9-yl)ethyl)amino)benzoic acid] | < 5.00 | 6.66 | – | – |
| Cc1cc([C@@H](C)Nc2ccccc2C(=O)O)c2nc(N3CCC4(CCO4)CC3)c(C)c(=O)n2c1 [Example 11-56, (R)-2-((1-(3,7-dimethyl-4-oxo-2-(1-oxa-7-azaspiro[3.5]nonan-7-yl)-4H-pyrido[1,2-a]pyrimidin-9-yl)ethyl)amino)benzoic acid] | < 5.00 | 6.58 | – | – |
| CO[C@H]1CN(c2nc3c([C@@H](C)Nc4ccccc4C(=O)O)cc(C)cn3c(=O)c2C)CCC1(F)F [Example 11-57, 2-(((R)-1-(2-((S)-4,4-difluoro-3-methoxypiperidin-1-yl)-3,7-dimethyl-4-oxo-4H-pyrido[1,2-a]pyrimidin-9-yl)ethyl)amino)benzoic acid] | < 5.00 | 6.88 | – | – |
| CO[C@@H]1CN(c2nc3c([C@@H](C)Nc4ccccc4C(=O)O)cc(C)cn3c(=O)c2C)CCC1(F)F [Example 11-58, 2-(((R)-1-(2-((R)-4,4-difluoro-3-methoxypiperidin-1-yl)-3,7-dimethyl-4-oxo-4H-pyrido[1,2-a]pyrimidin-9-yl)ethyl)amino)benzoic acid] | < 5.00 | 6.77 | – | – |
| Cc1cc([C@@H](C)Nc2ccccc2C(=O)O)c2nc(N3CC[C@@H](C)C(F)(F)C3)c(C)c(=O)n2c1 [Example 11-59, 2-(((R)-1-(2-((R)-3,3-difluoro-4-methylpiperidin-1-yl)-3,7-dimethyl-4-oxo-4H-pyrido[1,2-a]pyrimidin-9-yl)ethyl)amino)benzoic acid] | < 5.00 | 6.56 | – | – |
| Cc1cc([C@@H](C)Nc2ccccc2C(=O)O)c2nc(N3CC[C@H](C)C(F)(F)C3)c(C)c(=O)n2c1 [Example 11-60, 2-(((R)-1-(2-((S)-3,3-difluoro-4-methylpiperidin-1-yl)-3,7-dimethyl-4-oxo-4H-pyrido[1,2-a]pyrimidin-9-yl)ethyl)amino)benzoic acid] | < 5.00 | 6.80 | – | – |
| Cc1cc([C@@H](C)Nc2ccccc2C(=O)O)c2nc(N3CC(F)(F)C4(CC4)C3)c(C)c(=O)n2c1 [Example 11-61, (R)-2-((1-(2-(7,7-difluoro-5-azaspiro[2.4]heptan-5-yl)-3,7-dimethyl-4-oxo-4H-pyrido[1,2-a]pyrimidin-9-yl)ethyl)amino)benzoic acid] | < 5.00 | 6.84 | – | – |
| Cc1cc([C@@H](C)Nc2ccccc2C(=O)O)c2nc(N3CCC4(CCOC4)CC3)c(C)c(=O)n2c1 [Example 11-62, (R)-2-((1-(3,7-dimethyl-4-oxo-2-(2-oxa-8-azaspiro[4.5]decan-8-yl)-4H-pyrido[1,2-a]pyrimidin-9-yl)ethyl)amino)benzoic acid] | – | – | < 5.00 | 6.76 |
| Cc1cc([C@@H](C)Nc2ccccc2C(=O)O)c2nc(N3CCC4(CCCO4)CC3)c(C)c(=O)n2c1 [Example 11-63, (R)-2-((1-(3,7-dimethyl-4-oxo-2-(1-oxa-8-azaspiro[4.5]decan-8-yl)-4H-pyrido[1,2-a]pyrimidin-9-yl)ethyl)amino)benzoic acid] | < 5.00 | 6.87 | – | – |
| Cc1cc([C@@H](C)Nc2ccccc2C(=O)O)c2nc(N3CCC(F)(F)[C@H](C)C3)c(C#N)c(=O)n2c1 [Example 11-64, 2-(((R)-1-(3-cyano-2-((R)-4,4-difluoro-3-methylpiperidin-1-yl)-7-methyl-4-oxo-4H-pyrido[1,2-a]pyrimidin-9-yl)ethyl)amino)benzoic acid] | < 5.00 | 6.88 | – | – |
| Cc1cc([C@@H](C)Nc2ccccc2C(=O)O)c2nc(N3CCC(F)(F)C(C)C3)c(C)c(=O)n2c1 (stereo partly drawn) [Example 11-65, 2-(((1R)-1-(2-(4,4-difluoro-3-methylpiperidin-1-yl)-3,7-dimethyl-4-oxo-4H-pyrido[1,2-a]pyrimidin-9-yl)ethyl)amino)benzoic acid] | < 5.00 | 6.84 | – | – |
| CO[C@@H]1CCN(c2nc3c([C@@H](C)Nc4ccccc4C(=O)O)cc(C)cn3c(=O)c2C#N)CC1(F)F [Example 11-66, 2-(((R)-1-(3-cyano-2-((R)-3,3-difluoro-4-methoxypiperidin-1-yl)-7-methyl-4-oxo-4H-pyrido[1,2-a]pyrimidin-9-yl)ethyl)amino)benzoic acid] | < 5.00 | 6.64 | – | – |
| COC1CCN(c2nc3c([C@@H](C)Nc4ccccc4C(=O)O)cc(C)cn3c(=O)c2C#N)CC1(F)F (stereo partly drawn) [Example 11-67, 2-(((1R)-1-(3-cyano-2-(3,3-difluoro-4-methoxypiperidin-1-yl)-7-methyl-4-oxo-4H-pyrido[1,2-a]pyrimidin-9-yl)ethyl)amino)benzoic acid] | < 5.00 | 6.84 | – | – |

Reference: patent US20260078120A1, “SUBSTITUTED PYRIDOPYRIMIDINONES” (MIRATI THERAPEUTICS, INC., priority 2022, published 2026)
